Laboratory results: PMC8365602 (Journal of Medicinal Chemistry, 2021)

Experiments:
[1] = Radical scavenging activity (DPPH); conditions: DPPH
Procedure: Compound 27a was incubated with 2,2-diphenyl-1-picrylhydrazyl (DPPH, Sigma-Aldrich; 50 mM) in ethanol for 30 min, and the absorbance was measured at 520 nm using a Multiskan Spectrum Microplate Reader (Thermo Fisher Scientific).[72] The positive control ascorbic acid (Sigma-Aldrich; 25 μM) scavenged DPPH radicals by 36 ± 11%.

ovine COX-1 = molecular target: T1, ovine COX-1 (Ovis aries, UniProt P05979); experiment: Isolated COX-1 activity; assay type: biochemical
T1 construct: purchased Cayman Chemicals
T1 sequence (P05979 25-600): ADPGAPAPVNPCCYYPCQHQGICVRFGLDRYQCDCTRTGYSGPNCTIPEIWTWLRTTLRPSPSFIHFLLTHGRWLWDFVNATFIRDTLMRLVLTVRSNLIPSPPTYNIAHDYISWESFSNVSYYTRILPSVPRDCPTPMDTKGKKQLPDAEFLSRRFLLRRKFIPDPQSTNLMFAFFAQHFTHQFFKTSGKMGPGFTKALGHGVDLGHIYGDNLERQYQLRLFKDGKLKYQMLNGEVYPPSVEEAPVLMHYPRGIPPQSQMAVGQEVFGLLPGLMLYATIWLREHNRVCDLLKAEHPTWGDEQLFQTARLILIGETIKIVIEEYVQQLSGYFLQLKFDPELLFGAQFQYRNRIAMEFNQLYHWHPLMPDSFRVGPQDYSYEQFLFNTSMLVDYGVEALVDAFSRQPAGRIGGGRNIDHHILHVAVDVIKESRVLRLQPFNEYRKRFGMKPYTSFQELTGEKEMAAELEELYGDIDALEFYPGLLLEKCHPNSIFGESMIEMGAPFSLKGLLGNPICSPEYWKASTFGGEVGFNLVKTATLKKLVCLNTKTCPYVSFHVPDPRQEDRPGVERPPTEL
Procedure: Purified ovine COX-1 (Cayman Chemicals; 50 units) or human recombinant COX-2 (Cayman Chemicals; 20 units) was dissolved in 100 mM Tris buffer pH 8, 5 mM glutathione, 5 μM hemoglobin, and 100 μM EDTA. COX isoenzymes were preincubated with the vehicle (DMSO) or 27a for 5 min at 4 °C and 1 min at 37 °C. Addition of arachidonic acid (COX-1: 5 μM; COX-2: 2 μM) initiated the formation of COX-derived 12(S)-hydroxy-5-cis-8,10-trans-heptadecatrienoic acid (12-HHT), which was extracted and analyzed by RP-HPLC according to 5-LOX products.

COX-1 = molecular target: T2, COX-1 (Homo sapiens, UniProt P23219); experiment: Platelet COX-1 activity (12-HHT formation); assay type: cell-based
T2 construct: Freshly isolated platelets (1 × 10^8) were preincubated with vehicle (DMSO) or 27a; endogenous in cells; host or cells: freshly isolated human platelets
T2 sequence (P23219 24-599): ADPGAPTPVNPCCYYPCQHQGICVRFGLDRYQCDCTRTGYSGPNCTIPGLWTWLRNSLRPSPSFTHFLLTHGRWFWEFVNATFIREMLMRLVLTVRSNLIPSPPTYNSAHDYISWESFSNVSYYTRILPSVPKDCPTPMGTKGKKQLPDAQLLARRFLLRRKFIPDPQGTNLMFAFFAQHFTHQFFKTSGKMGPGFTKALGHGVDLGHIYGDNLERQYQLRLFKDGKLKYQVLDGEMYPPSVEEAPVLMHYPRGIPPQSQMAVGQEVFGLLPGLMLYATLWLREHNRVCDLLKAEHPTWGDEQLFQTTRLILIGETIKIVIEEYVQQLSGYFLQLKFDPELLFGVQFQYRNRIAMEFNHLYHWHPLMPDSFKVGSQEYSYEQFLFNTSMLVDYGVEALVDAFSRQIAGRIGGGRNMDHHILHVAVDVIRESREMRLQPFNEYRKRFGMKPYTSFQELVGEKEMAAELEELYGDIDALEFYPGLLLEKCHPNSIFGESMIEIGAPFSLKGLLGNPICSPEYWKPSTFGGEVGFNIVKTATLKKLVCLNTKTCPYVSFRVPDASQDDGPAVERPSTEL
Procedure: Freshly isolated platelets (1 × 10^8) were preincubated with vehicle (DMSO) or 27a for 5 min at room temperature. Arachidonic acid (5 μM) was added to induce 12-HHT formation.

human recombinant sEH = molecular target: T3, human recombinant sEH (Homo sapiens, UniProt P34913); experiment: sEH activity; assay type: biochemical
T3 construct: made in house; host or cells: Sf9 insect cells (recombinant baculovirus)
T3 sequence (P34913 whole entry): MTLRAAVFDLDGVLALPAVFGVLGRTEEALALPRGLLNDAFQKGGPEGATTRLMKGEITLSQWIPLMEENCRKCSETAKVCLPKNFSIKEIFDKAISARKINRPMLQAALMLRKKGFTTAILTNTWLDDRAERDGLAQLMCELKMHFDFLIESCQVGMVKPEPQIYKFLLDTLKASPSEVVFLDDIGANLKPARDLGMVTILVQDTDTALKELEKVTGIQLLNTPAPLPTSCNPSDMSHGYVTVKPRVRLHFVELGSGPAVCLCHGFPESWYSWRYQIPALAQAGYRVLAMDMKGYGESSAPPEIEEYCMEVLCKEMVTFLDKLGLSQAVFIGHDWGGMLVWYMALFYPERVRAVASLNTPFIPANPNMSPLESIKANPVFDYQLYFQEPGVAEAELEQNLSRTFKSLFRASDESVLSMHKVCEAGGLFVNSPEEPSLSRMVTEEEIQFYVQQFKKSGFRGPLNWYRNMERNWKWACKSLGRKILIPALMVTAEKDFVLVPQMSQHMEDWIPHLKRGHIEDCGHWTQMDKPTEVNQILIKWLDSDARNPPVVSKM
Procedure: Human recombinant sEH was expressed in Sf9 insect cells and purified by affinity chromatography.[83] Briefly, Sf9 cells were infected with a recombinant baculovirus and lysed after 72 h in 50 mM NaHPO4 pH 8, 300 mM NaCl, 10% glycerol, 1 mM EDTA, 1 mM phenylmethanesulfonyl fluoride, 10 μg/mL leupeptin, and 60 μg/mL STI by sonication (3 × 10 s, 4 °C). […] Elution with 4-fluorochalcone oxide in PBS pH 7.4 with 1 mM dithiothreitol and 1 mM EDTA yielded sEH, which was dialyzed and concentrated.
Purified sEH (60 ng) in 25 mM Tris HCl pH 7 with 0.1 mg/mL bovine serum albumin (BSA) was preincubated with the vehicle (DMSO) or 27a for 10 min at room temperature. The sEH substrate PHOME (50 μM, Cayman Chemicals) was added to start the enzymatic reaction, which was stopped after 60 min in darkness by addition of ZnSO4 (200 mM). The formation of the fluorescent product 6-methoxynaphtaldehyde was measured using a NOVOstar fluorescence microplate reader (BMG Labtech, Ortenberg, Germany), with excitation at 330 and emission at 465 nm.

[2] = test system: human macrophages (M1 subtype); experiment: Lipid mediator profile of M1 macrophages stimulated with pathogenic E. coli; assay type: cell-based; conditions: 1 μM
Procedure: Macrophages were polarized to the M1 phenotype by stimulation with LPS (100 ng/mL, Sigma-Aldrich) and interferon (IFN)-γ (20 ng/mL, Peprotech, Hamburg, Germany) for 48 h.[23]
Monocytes (1 × 10^6/mL), which were prestimulated with LPS (1 μg/mL) for 24 h to induce COX-2 expression, or M1 macrophages (2 × 10^6 cells/mL) were preincubated with the vehicle (0.1% DMSO), 27a, or 12a for 15 min. Arachidonic acid (20 μM) and A23187 (2.5 μM) were added to monocytes suspended in a monocyte medium (lacking FCS if indicated) to induce lipid mediator formation.[81]
Fatty acids and lipid mediators were extracted from macrophage supernatants or murine peritoneal exudates (1 mL) after addition of two aliquots of ice-cold methanol.[23]d8-5S-HETE, d4-LTB4, d5-lipoxin A4, d5-resolvin D2, d4-PGE2 (200 nM, each, Cayman Chemicals), and d8-arachidonic acid (10 μM, Cayman Chemicals) were added as internal standards. […] The columns were extensively washed with H2O and hexane before lipid mediators were eluted with methyl formate, evaporated to dryness, dissolved in methanol/H2O (50:50), and analyzed by UPLC-MS/MS.[23]
To quantify lipid mediators and fatty acids in macrophages, murine plasma, and murine peritoneal exudates, the mobile phase methanol/H2O (acidified with 0.01% acetic acid) was ramped from 42:58 to 86:14 over 12.5 min, followed by isocratic elution with methanol/H2O (98:2) for 3 min. […]

[3] = Hepatic metabolism in human liver-on-chip; assay type: in vitro ADME; conditions: 1 μM, 48 h
Procedure: LCMs, 27a, and 27a metabolites were extracted from PMNL, medium of the liver-on-chip, murine plasma, peritoneal exudate, or homogenized murine tissue as described.[6] In brief, PBS pH 7.4, methanol, chloroform, and saline (final ratio: 14:34:35:17) were successively added together with 13d (9 pmol) as the internal standard. The organic layer was evaporated, and the extracted LCMs were dissolved in methanol.
LCMs, 27a, and 27a metabolites were separated at a flow rate of 0.8 mL/min and a column temperature of 45 °C, with acetonitrile/H2O (10:90) as mobile phase A and acetonitrile as mobile phase B, both acidified with 0.07% formic acid. The linear gradient from A/B = 50:50 to 0:100 within 4.5 min was followed by isocratic elution with A/B = 0:100 for 1 min. MS parameters were adjusted according to Pein et al.[6] and as detailed in Table S3. Signal intensities were normalized to the internal standard 13d, and concentrations were calculated using external calibration curves as specified in Table S3. […]
The medium between the two membranes was renewed, and the vehicle (DMSO), 12a, or 27a were added. […] 12a, 27a, and their metabolites were extracted from the combined fractions and analyzed by UPLC-MS/MS.[6]

C/C(=C\CC/C(C)=C/CC[C@]1(C)CCc2c(C)c(O)c(C)c(C)c2O1)CCC=C(CO)CO [Compound 27a, α-amplexichromanol]
Concentrations with antioxidative properties (radical scavenging) versus 5-LOX inhibition [1]: exceed those that effectively inhibit 5-LOX | COX-1 inhibition (isolated ovine enzyme) (ovine COX-1): not substantially inhibited | COX-1 inhibition within human platelets (COX-1): not substantially inhibited | sEH inhibition (human recombinant sEH): not substantially inhibited | Biosynthesis of 5-LOX-derived products in M1 macrophages [2]: preferentially suppressed the biosynthesis of 5-LOX-derived products | PGE2 levels in M1 macrophages [2]: slightly increased | Hepatic metabolism [3]: preferentially conjugated with sulfate or oxidized at 12a′ or 13′ to the respective ω-carboxylic acid
